Measurements: patent US10077436B2, “Beta-glucosidase enzymes for increased biomass saccharification” (Edeniq, Inc., priority 2013, dated 2018)

Target: T1, Aspergillus niger beta-glucosidase, wild type, yEdQ745-BG (CAB75696.1, SEQ ID NO:2) (Aspergillus niger, UniProt Q9P8F4)
T1 construct: strain yEdQ745
T1 sequence (Q9P8F4 20-860): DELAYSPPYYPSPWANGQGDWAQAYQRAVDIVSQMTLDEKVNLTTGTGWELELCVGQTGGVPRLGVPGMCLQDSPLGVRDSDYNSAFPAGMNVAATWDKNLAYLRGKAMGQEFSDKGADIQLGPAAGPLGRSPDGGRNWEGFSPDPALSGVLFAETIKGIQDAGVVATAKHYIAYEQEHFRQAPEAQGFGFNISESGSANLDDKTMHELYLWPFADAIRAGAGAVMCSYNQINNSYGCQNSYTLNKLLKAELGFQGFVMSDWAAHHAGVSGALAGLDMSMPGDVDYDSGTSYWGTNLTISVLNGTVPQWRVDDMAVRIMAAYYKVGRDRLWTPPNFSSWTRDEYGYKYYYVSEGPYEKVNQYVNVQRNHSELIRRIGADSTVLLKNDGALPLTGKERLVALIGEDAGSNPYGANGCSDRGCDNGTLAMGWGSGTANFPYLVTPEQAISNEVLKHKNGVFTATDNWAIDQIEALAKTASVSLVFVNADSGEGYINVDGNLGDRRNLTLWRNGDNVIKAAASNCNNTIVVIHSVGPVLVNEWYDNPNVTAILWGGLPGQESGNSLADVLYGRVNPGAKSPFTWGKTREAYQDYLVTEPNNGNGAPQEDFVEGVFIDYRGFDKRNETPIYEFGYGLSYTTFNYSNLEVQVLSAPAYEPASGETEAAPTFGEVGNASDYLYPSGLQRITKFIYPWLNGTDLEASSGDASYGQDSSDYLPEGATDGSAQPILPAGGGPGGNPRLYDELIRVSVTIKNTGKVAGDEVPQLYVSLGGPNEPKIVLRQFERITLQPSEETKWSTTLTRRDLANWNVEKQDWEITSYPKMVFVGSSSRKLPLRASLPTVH
Assay: BG kinetics, pNPG hydrolysis assay with glucose as competitive inhibitor, yEdQ745-BG
Format: biochemical
From the text: Accordingly, in some embodiments, the unmodified form of the beta-glucosidase is a wild-type or a naturally occurring beta-glucosidase, such as, for example, a fungal beta-glucosidase. The full nucleic acid and amino acid sequence for numerous fungal beta-glucosidases are available. The amino acid sequence of A. niger beta-glucosidase is provided as SEQ ID NO:2. Thus, in some embodiments, the unmodified beta-glucosidase is from an Aspergillus species. In some embodiments, the unmodified beta-glucosidase is from a Trichoderma species.
The beta-glucosidase (BG) gene from Aspergillus niger (Accession #CAB75696.1) was integrated into the TR3 yeast background at the T4U3 genomic site.
The BG-expressing strains were subsequently used in corn mash and corn stover simultaneous saccharification and fermentation (SSF) studies using flask scale and pilot plant fermentations. […]
BG activity assay using pNPG is one of the two commonly used standard assays to measure BG activity, which utilizes hydrolysis of p-nitrophenyl-β-D-glucopyranoside (pNPG) by BG into a yellow colored product, p-nitrophenol (pNP), that has a strong absorbance at 405 nm. […] The reaction was then terminated by adding 100 μL of 0.25 M sodium carbonate, and the amount of pNP produced was determined by measuring absorbance at 405 nm using a predetermined calibration curve. […]

## OC[C@H]1OC(O)[C@H](O)[C@@H](O)[C@@H]1O (some centres unmarked) [glucose]
  Ki: 2.13 ± 0.18 mM
Inhibitor influence, Km for pNPG / Ki for glucose, pH 5.0, 50° C.
  Km/Ki: 0.30
